The values below come from publication PMC8322070, “A novel orally active HDAC6 inhibitor T-518 shows a therapeutic potential for Alzheimer’s disease and tauopathy in mice” (Scientific Reports, 2021).

What is called fraction unbound is the share of the substance not bound to proteins or other matrix.

Molecules are shown by their SMILES.

One series addresses T1, human HDAC1 (Homo sapiens, UniProt Q13547).
T1 construct: purchased SignalChem Pharmaceutical Inc
The series is described as follows: HDAC enzyme assay (HDAC-Glo I/II), HDAC1. The class given is biochemical. The note with it: concentrations up to 10 μM. As to the method:
(§1) Recombinant HDAC6, HDAC7, HDAC1 were obtained from SignalChem Pharmaceutical Inc. (Richmond, BC, Canada), and recombinant human HDAC4 was prepared at Takeda pharmaceutical company. One μL of T-518 diluted with DMSO was added to 75 μL of assay buffer (24 mM Tris–HCl (pH 7.5), 135 mM NaCl, 0.35 mM KCl, 1 mM MgCl2, 0.01% Tween 20, 0.6 mM GSH) in 384 well plates. Two μL of diluted compounds were added to 384 well plates and 2 μL of recombinant HDAC enzymes was added and then centrifuged at 1000 rpm for 10 s. The final concentrations of each HDAC enzyme were as follows, human HDAC1, 170 pM; human HDAC6, […]; human HDAC4, 68 pM; human HDAC7, 13 pM. After incubation for 60 min at room temperature, 4 μL of HDAC-Glo reagent [HDAC-Glo I/II (Promega) for HDAC6 and HDAC1, HDAC-Glo class IIa (Promega) for HDAC4 and HDAC7] was added to start the reaction. After incubation for 20 min at room temperature, the luminescence was measured by Envision plate reader (PerkinElmer, Waltham, MA, USA). For experiments under the condition of 0 min preincubation, 4 μL of HDAC-Glo reagent was added at first to the 384 well plates including diluted compounds. […] After centrifugation at 1000 rpm for 10 s. and then incubation for 20 min at room temperature, the luminescence was measured by Envision. […] The inhibitory activity of T-518 was expressed as the value of IC50. […]

Series [1] can be described thus: Free fraction in a brain (Fu,b). The class given is in vitro ADME. The note with it: data not shown.
Series [2] deals with acetylated tubulin in hippocampus. The series is described as follows: In vivo pharmacodynamics: acetylated tubulin in hippocampus (ELISA). The note with it: 0.3–300 mg/kg orally, 4 h after administration, C57BL/6J mice. The procedure: T-518, ACY-738, Ricolinostat, and Tubastatin A were synthesized in Takeda. For in vitro cellular experiments, the compounds were solubilized with DMSO and diluted in the culture medium at the indicated concentrations. For in vivo experiments, the compound was reconstituted in 0.5% methylcellulose and administered orally at the indicated doses. After administration, mouse hippocampus was isolated and homogenized in RIPA extraction buffer (50 mM Tris–HCl, 150 mM NaCl, 1% NP-40, 0.5% sodium deoxycholate, and 0.1% SDS, pH 8.0) supplemented with protease and phosphatase inhibitor cocktail (Thermo Fischer, Waltham, MA, USA). The homogenate was centrifuged at 10,000g for 15 min and the supernatant was taken as the RIPA-soluble fraction.
Acetylated α-tubulin and total tubulin levels were measured by sandwich ELISA. Ninety six-well plates (Microlite2+, Thermo) were coated with α-tubulin capture antibody (1:100) by overnight incubation at 4 °C, washed 4 times with PBS'T, treated with blocking buffer (1% bovine serum albumin in PBS'T) at 37 °C for 2 h, and washed another 4 times with PBS’T. Cell or tissues lysate was added to the wells and plates were incubated at 37 °C for 2 h. […]
On the technique in general: In an ELISA, binding on a coated surface is turned into a signal by an enzyme label.

The target in another series is T2, human HDAC4 (Homo sapiens, UniProt P56524).
T2 construct: made in house
T2 sequence (P56524 whole entry): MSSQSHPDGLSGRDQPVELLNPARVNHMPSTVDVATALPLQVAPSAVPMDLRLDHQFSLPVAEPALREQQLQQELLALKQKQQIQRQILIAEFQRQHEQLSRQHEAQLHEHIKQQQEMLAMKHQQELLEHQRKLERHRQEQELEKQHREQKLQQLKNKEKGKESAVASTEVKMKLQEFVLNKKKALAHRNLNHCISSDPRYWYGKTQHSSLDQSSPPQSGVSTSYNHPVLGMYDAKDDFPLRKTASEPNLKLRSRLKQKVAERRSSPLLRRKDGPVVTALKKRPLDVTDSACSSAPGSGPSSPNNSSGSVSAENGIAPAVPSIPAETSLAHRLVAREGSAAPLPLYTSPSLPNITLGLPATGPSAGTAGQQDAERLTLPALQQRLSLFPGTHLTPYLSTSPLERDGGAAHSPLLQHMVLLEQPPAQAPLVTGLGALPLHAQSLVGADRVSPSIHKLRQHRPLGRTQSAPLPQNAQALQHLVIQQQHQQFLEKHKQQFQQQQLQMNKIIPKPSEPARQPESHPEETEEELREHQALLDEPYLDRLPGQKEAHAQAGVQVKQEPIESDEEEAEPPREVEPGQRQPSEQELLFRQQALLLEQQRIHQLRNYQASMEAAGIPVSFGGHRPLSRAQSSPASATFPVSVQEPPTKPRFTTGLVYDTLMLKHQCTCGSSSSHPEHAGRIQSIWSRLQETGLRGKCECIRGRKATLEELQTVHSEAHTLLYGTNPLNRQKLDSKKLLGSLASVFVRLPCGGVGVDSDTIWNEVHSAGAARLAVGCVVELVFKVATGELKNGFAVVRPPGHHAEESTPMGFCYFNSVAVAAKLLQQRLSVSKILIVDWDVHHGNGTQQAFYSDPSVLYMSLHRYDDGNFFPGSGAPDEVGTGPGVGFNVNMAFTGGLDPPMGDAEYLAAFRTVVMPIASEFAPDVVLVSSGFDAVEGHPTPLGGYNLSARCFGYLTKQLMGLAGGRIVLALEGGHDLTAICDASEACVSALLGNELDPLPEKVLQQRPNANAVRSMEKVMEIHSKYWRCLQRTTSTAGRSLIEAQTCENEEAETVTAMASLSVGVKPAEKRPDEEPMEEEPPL
The series is described as follows: HDAC enzyme assay (HDAC-Glo class IIa), HDAC4. The class given is biochemical. The note with it: concentrations up to 10 μM. As to the method:
as §1

T1 sequence (Q13547 whole entry): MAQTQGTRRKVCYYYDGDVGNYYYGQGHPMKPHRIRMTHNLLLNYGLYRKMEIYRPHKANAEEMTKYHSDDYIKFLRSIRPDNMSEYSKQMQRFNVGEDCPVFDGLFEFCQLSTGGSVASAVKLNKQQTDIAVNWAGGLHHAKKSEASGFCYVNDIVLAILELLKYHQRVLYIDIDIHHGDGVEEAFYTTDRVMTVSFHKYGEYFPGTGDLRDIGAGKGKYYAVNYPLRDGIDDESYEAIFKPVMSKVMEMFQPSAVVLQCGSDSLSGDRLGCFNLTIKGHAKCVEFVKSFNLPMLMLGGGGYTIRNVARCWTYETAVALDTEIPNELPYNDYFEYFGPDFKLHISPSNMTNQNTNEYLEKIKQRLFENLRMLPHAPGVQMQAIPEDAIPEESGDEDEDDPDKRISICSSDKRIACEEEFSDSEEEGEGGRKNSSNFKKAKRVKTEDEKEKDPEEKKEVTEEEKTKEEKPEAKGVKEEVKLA

On to `O=C1c2cc(-c3nnc(C(F)F)o3)cnc2CN1[C@@H]1CCCC[C@H]1NC(=O)C(F)(F)C(F)(F)F` [T-518, N-[(1R,2R)-2-{3-[5-(difluoromethyl)-1,3,4-oxadiazol-2-yl]-5-oxo-5H,6H,7H-pyrrolo[3,4-b]pyridin-6-yl}cyclohexyl]-2,2,3,3,3-pentafluoropropanamide], for which the “inhibition of human HDAC1 enzyme activity” value against human HDAC1 is reported as “did not obviously inhibit”. For the same molecule, the fraction unbound in series [1] was 0.4. The “tubulin acetylation in hippocampi” value in series [2] was “dose-dependently increased tubulin acetylation”. In addition, the “inhibition of human HDAC4 enzyme activity” value at human HDAC4 is “did not obviously inhibit”.
